Test results as given in US6846492B2, “Use of phenylethylamine derivatives for the antimicrobial treatment of surfaces” (Ciba Specialty Chemicals Corporation, priority 2000, dated 2005).

Experiments:
Type in all cases: cell-based
[1] = test system: Aspergillus niger ATCC 6275 (= AN); assay: MIC determination in microtiter plates, Aspergillus niger; conditions: Tables 2a/2b, 5 days at 28° C., ≦20% growth, optical density 620 nm, some approximate values
Protocol: (§1) Determination of the Minimum Inhibitory Concentration (MIC Value) in Microtiter Plates
(§2) Casein/soybean flour peptone bouillon for the preparation of pre-cultures of the test bacteria and yeast.
(§3) Mycological slant agar for the pre-culture of moulds
(§4) The test substances are pre-dissolved in dimethyl sulfoxide (DMSO) and tested in a dilution series of 1:2.
(§5) Bacteria and yeast are cultured overnight in CASO bouillon, the mould is cultured overnight on mycological slant agar, and washed off with 10 ml of 0.85% sodium chloride solution (+0.1% TritonX-100).
(§6) All the test organisms are adjusted to an organism count of 1−5×10^6 CFU/ml using 0.85% sodium chloride solution.
(§7) The test substances are pre-pipetted into microtiter plates in an amount of 8 μl per well.
(§8) Pre-diluted organism suspensions are diluted 1:100 in CASO bouillon (bacteria and yeast) or Sabouraud 2% glucose bouillon (mould) and are added in an amount of 192 μl per well to the test substances.
(§9) The test batches are incubated for 48 hours at 37° C. (bacteria and yeast) or for 5 days at 28° C. (mould).
(§10) After incubation, the growth is evaluated by reference to the turbidity of the test batches (optical density) at 620 nm in a microplate reader.
(§11) One microtiter plate is used for each test organism and substance concentration. All the substances are tested in duplicate.

[2] = test system: Pseudomonas aeruginosa CIP A-22 (= PA); assay: MIC determination in microtiter plates, Pseudomonas aeruginosa; conditions: Tables 2a/2b, 48 hours at 37° C., ≦20% growth, optical density 620 nm, some approximate values
Protocol: as §1, §2, §3, §4, §5, §6, §7, §8, §9, §10, §11

[3] = test system: Escherichia coli NCTC 8196 (= EC); assay: MIC determination in microtiter plates, Escherichia coli; conditions: Tables 2a/2b, 48 hours at 37° C., ≦20% growth, optical density 620 nm, some approximate values
Protocol: as §1, §2, §3, §4, §5, §6, §7, §8, §9, §10, §11

[4] = test system: Candida albicans ATCC 10231 (= CA); assay: MIC determination in microtiter plates, Candida albicans; conditions: Tables 2a/2b, 48 hours at 37° C., ≦20% growth, optical density 620 nm, some approximate values
Protocol: as §1, §2, §3, §4, §5, §6, §7, §8, §9, §10, §11

[5] = test system: Staphylococcus hominis DMS 20328 (= SH); assay: MIC determination in microtiter plates, Staphylococcus hominis; conditions: Tables 2a/2b, 48 hours at 37° C., ≦20% growth, optical density 620 nm, tested at 120, 60, 30, 15, 7.5 and 3.5 ppm, some approximate
Protocol: as §1, §2, §3, §4, §5, §6, §7, §8, §9, §10, §11

Row | SMILES | MIC [ppm] AN [1] | MIC [ppm] PA [2] | MIC [ppm] EC [3] | MIC [ppm] CA [4] | MIC [ppm] SH [5]
1 | COC(=O)c1ccc(COc2ccc(CCN)cc2OCc2ccc(C(=O)OC)cc2)cc1 [Compound 14] | >120 ppm | 120 ppm | 30 ppm | 30 ppm | 7.5 ppm
2 | NCCc1ccc(OC2CCCC2)c(OC2CCCC2)c1 [Compound 41] | >120 ppm | >120 ppm | 120 ppm | 120 ppm | 120 ppm
3 | N#Cc1ccc(COc2ccc(CCN)cc2OCc2ccc(C#N)cc2)cc1 [Compound 13] | >120 ppm | >120 ppm | 120 ppm | >120 ppm | 120 ppm
4 | C=CCCOc1cc(CCN)cc(OCCC=C)c1OCCC=C [Compound 94] | >120 ppm | >120 ppm | 60 ppm | 120 ppm | 60 ppm
5 | CCOC(=O)COc1cc(CCN)cc(OCC(=O)OCC)c1OCC(=O)OCC [Compound 73] | >120 ppm | >120 ppm | >120 ppm | >120 ppm | >120 ppm
6 | NCCc1ccc(OCc2cccc(C(F)(F)F)c2)c(OCc2cccc(C(F)(F)F)c2)c1 [Compound 9] | >120 ppm | >120 ppm | 3.75 ppm | 7.5 ppm | 3.75 ppm
7 | COC(=O)COc1cc(CCN)cc(OCC(=O)OC)c1OCC(=O)OC [Compound 72] | >120 ppm | >120 ppm | >120 ppm | >120 ppm | >120 ppm
8 | CC(C)(C)OC(=O)COc1cc(CCN)cc(OCC(=O)OC(C)(C)C)c1OCC(=O)OC(C)(C)C [Compound 76] | >120 ppm | >120 ppm | >120 ppm | >120 ppm | –
9 | N#Cc1ccccc1COc1ccc(CCN)cc1OCc1ccccc1C#N [Compound 11] | >120 ppm | >120 ppm | >120 ppm | >120 ppm | 120 ppm
10 | CC(C)OC(=O)COc1ccc(CCN)cc1OCC(=O)OC(C)C [Compound 24] | 15 ppm | >120 ppm | >120 ppm | >120 ppm | >120 ppm
11 | CCCCCCCCCOc1ccc(CCN)cc1OCCCCCCCCC [Compound 39] | >120 ppm | >120 ppm | >120 ppm | >120 ppm | 60 ppm
12 | CCCCOc1ccc(CCN)cc1OCCCC [Compound 30] | >120 ppm | >120 ppm | 120 ppm | 120 ppm | 120 ppm
13 | NCCc1cc(OCc2cccc(F)c2)c(OCc2cccc(F)c2)c(OCc2cccc(F)c2)c1 [Compound 67] | >120 ppm | >120 ppm | 7.5 ppm | 7.5 ppm | 3.75 ppm
14 | COC(=O)COc1ccc(CCN)cc1OCC(=O)OC [Compound 21] | 120 ppm | >120 ppm | >120 ppm | >120 ppm | >120 ppm
15 | CCOC(=O)CCCOc1ccc(CCN)cc1OCCCC(=O)OCC [Compound 27] | >120 ppm | >120 ppm | >120 ppm | >120 ppm | >120 ppm
16 | Cc1ccccc1COc1ccc(CCN)cc1OCc1ccccc1C [Compound 5] | 7.5 ppm | >120 ppm | 15 ppm | 15 ppm | 7.5 ppm
17 | CC(C)(C)OC(=O)COc1ccc(CCN)cc1OCC(=O)OC(C)(C)C [Compound 25] | 15 ppm | >120 ppm | >120 ppm | >120 ppm | >120 ppm
18 | CCCOc1ccc(CCN)cc1OCCC [Compound 29] | >120 ppm | >120 ppm | >120 ppm | >120 ppm | >120 ppm
19 | CC(C)CCOc1cc(CCN)cc(OCCC(C)C)c1OCCC(C)C [Compound 84] | 15 ppm | >120 ppm | 7.5 ppm | 15 ppm | 3.75 ppm
20 | C=CCOc1ccc(CCN)cc1OCC=C [Compound 42] | >120 ppm | >120 ppm | >120 ppm | >120 ppm | >120 ppm
21 | NCCc1ccc(OCc2ccc3ccccc3c2)c(OCc2ccc3ccccc3c2)c1 [Compound 20] | >120 ppm | >120 ppm | >120 ppm | >120 ppm | 3.75 ppm
22 | NCCc1ccc(OCc2ccccc2)c(OCc2ccccc2)c1 [Compound 19] | >120 ppm | >120 ppm | 28 ppm | 60 ppm | 28 ppm
23 | CCCOc1cc(CCN)cc(OCCC)c1OCCC [Compound 80] | 120 ppm | >120 ppm | 120 ppm | >120 ppm | 120 ppm
24 | CCC(C)Oc1ccc(CCN)cc1OC(C)CC (stereo not shown) [Compound 32] | >120 ppm | >120 ppm | >120 ppm | >120 ppm | >120 ppm
25 | COC(=O)c1ccc(COc2cc(CCN)cc(OCc3ccc(C(=O)OC)cc3)c2OCc2ccc(C(=O)OC)cc2)cc1 [Compound 65] | >120 ppm | >120 ppm | >120 ppm | 60 ppm | 15 ppm
26 | NCCc1ccc(OCc2ccccc2F)c(OCc2ccccc2F)c1 [Compound 15] | >120 ppm | 120 ppm | 30 ppm | 30 ppm | 30 ppm
27 | CCCCCCCOc1ccc(CCN)cc1OCCCCCCC [Compound 37] | >120 ppm | >120 ppm | 30 ppm | 30 ppm | 3.75 ppm
28 | CCCCCCCCOc1ccc(CCN)cc1OCCCCCCCC [Compound 38] | >120 ppm | >120 ppm | >120 ppm | >120 ppm | 7.5 ppm
